Results as given in ChEMBL document CHEMBL6074626, “Recent advances in triazole synthesis via click chemistry and their pharmacological applications: A review” (Bioorg Med Chem Lett, 2024).
In brackets after ≈: the same amount, converted by molar mass.

Legend:
Klebsiella pneumoniae = experiment: microbe, parasite or virus in culture; conditions: ATCC 43816, 20 h
Description: Antimicrobial activity against Klebsiella pneumoniae ATCC 43816 assessed as reduction in bacterial growth incubated for 20 hrs by broth microdilution analysis

Proteus vulgaris = experiment: microbe, parasite or virus in culture; conditions: ATCC 13315, 24 h
Description: Antimicrobial activity against Proteus vulgaris ATCC 13315 assessed as microbial growth inhibition incubated for 24 hrs by broth microdilution method

Bacillus cereus = experiment: microbe, parasite or virus in culture; conditions: ATCC 14579
Description: Antibacterial activity against Bacillus cereus ATCC 14579 assessed as reduction in bacterial growth incubated for 18 to 24 hrs by broth microdilution method

Staphylococcus aureus = experiment: microbe, parasite or virus in culture; conditions: NCTC 13616, 20 h
Description: Antibacterial activity against methicillin-resistant Staphylococcus aureus NCTC 13616 assessed as reduction in bacterial growth incubated for 20 hrs by broth micro-dilution method

Escherichia coli = experiment: microbe, parasite or virus in culture; conditions: ATCC 8739, 20 h
Description: Antimicrobial activity against Escherichia coli ATCC 8739 assessed as reduction in bacterial growth incubated for 20 hrs by broth microdilution analysis

Bacillus subtilis = experiment: microbe, parasite or virus in culture; conditions: ATCC 6633, 20 h
Description: Antibacterial activity against Bacillus subtilis ATCC 6633 assessed as bacterial growth inhibition measured for 20 hrs by micro-broth dilution method

[1] = target: T1, Prostaglandin G/H synthase 1 (Ovis aries, UniProt P05979); experiment: Inhibition of ovine COX-1
T1 sequence (P05979 whole entry): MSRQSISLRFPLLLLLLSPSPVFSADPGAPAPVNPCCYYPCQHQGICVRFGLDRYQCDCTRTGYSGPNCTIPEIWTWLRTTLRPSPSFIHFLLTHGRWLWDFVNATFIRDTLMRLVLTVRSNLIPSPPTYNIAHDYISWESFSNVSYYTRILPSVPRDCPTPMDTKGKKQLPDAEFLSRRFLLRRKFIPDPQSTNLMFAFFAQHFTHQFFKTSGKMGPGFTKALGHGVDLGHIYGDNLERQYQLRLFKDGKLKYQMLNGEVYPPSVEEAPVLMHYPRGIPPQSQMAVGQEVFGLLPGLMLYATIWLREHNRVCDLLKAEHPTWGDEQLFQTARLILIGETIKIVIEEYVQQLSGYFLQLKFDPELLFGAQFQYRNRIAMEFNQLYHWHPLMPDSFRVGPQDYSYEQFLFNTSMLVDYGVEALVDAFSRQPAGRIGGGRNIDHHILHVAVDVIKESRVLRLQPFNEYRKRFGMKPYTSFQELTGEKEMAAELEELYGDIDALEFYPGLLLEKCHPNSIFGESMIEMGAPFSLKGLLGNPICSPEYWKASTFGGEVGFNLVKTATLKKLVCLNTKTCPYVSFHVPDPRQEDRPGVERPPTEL

[2] = target: T2, Prostaglandin G/H synthase 2 (Homo sapiens, UniProt P35354); experiment: Inhibition of human recombinant COX-2
T2 sequence (P35354 whole entry): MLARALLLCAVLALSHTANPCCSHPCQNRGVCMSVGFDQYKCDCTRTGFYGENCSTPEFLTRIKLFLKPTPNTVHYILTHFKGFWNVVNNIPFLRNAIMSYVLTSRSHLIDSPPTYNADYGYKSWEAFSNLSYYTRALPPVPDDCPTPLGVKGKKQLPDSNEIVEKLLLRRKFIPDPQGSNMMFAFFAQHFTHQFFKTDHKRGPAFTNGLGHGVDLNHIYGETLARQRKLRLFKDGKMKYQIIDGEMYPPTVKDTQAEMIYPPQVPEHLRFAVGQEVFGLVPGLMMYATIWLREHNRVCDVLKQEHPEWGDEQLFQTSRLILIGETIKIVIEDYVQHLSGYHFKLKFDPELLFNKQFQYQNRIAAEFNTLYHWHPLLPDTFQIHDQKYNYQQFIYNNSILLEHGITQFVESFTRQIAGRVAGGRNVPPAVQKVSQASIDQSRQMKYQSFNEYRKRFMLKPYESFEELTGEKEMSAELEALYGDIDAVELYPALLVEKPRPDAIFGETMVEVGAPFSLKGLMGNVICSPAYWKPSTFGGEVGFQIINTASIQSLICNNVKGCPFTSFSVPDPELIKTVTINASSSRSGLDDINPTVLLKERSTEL

[3] = Antioxidant activity assessed as DPPH radical scavenging activity incubated for 30 mins

| IC50 [1] [µM] | IC50 [2] [µM] | IC50 [3] [µM] | Compound | MIC (Klebsiella pneumoniae) [µg/mL] | MIC (Proteus vulgaris) [µg/mL] | MIC (Bacillus cereus) [µg/mL] | MIC (Staphylococcus aureus) [µg/mL] | MIC (Escherichia coli) [µg/mL] | MIC (Bacillus subtilis) [µg/mL] |
| --- | --- | --- | --- | --- | --- | --- | --- | --- | --- |
| – | – | – | CC(C)Cc1ccc(C(C)C(=O)c2ccc(OCc3cn(-c4ccc(Br)cc4)nn3)cc2O)cc1 (centres undefined) | 12 (≈ 22.5 µM) | 12 (≈ 22.5 µM) | 12 (≈ 22.5 µM) | 12 (≈ 22.5 µM) | 12 (≈ 22.5 µM) | 12 (≈ 22.5 µM) |
| 7.4 | 0.037 | – | COc1ccc(/C=C/C(=O)c2cc(-n3cc(-c4ccccc4)nn3)ccc2O)cc1 | – | – | – | – | – | – |
| 7.4 | 0.037 | – | COc1cc(/C=C/C(=O)c2cc(-n3cc(-c4ccccc4)nn3)ccc2O)cc(OC)c1OC | – | – | – | – | – | – |
| 7.4 | 0.037 | – | COc1ccc(/C=C/C(=O)c2cc(-n3cc(CN4C(=O)C(=O)c5ccccc54)nn3)ccc2O)cc1OC | – | – | – | – | – | – |
| 7.4 | 0.037 | – | COc1cc(/C=C/C(=O)c2cc(-n3cc(CN4C(=O)C(=O)c5ccccc54)nn3)ccc2O)cc(OC)c1OC | – | – | – | – | – | – |
| 7.4 | 0.037 | – | O=C(/C=C/c1ccccc1)c1cc(-n2cc(CN3C(=O)C(=O)c4ccccc43)nn2)ccc1O | – | – | – | – | – | – |
| 7.4 | 0.037 | – | CN(C)C(=O)c1ccc(/C=C/C(=O)c2cc(-n3cc(CN4C(=O)C(=O)c5ccccc54)nn3)ccc2O)cc1 | – | – | – | – | – | – |
| – | – | – | CC(C)Cc1ccc(C(C)C(=O)c2ccc(OCc3cn(-c4ccc([N+](=O)[O-])cc4)nn3)cc2O)cc1 (centres undefined) | 12 (≈ 24 µM) | 12 (≈ 24 µM) | 12 (≈ 24 µM) | 12 (≈ 24 µM) | 12 (≈ 24 µM) | 12 (≈ 24 µM) |
| – | – | – | CCCCCCCCn1cc(COc2ccc(C(=O)C(C)c3ccc(CC(C)C)cc3)c(O)c2)nn1 (centres undefined) | 12 (≈ 24.4 µM) | 12 (≈ 24.4 µM) | 12 (≈ 24.4 µM) | 12 (≈ 24.4 µM) | 12 (≈ 24.4 µM) | 12 (≈ 24.4 µM) |
| – | – | 29.7 | CCCCc1cn(CCCOc2ccc(-c3cc(=O)c4ccccc4o3)cc2)nn1 | – | – | – | – | – | – |
| – | – | – | CC(C)Cc1ccc(C(C)C(=O)c2ccc(OCc3cn(C4CCCCC4)nn3)cc2O)cc1 (centres undefined) | 12 (≈ 26 µM) | 12 (≈ 26 µM) | 12 (≈ 26 µM) | 12 (≈ 26 µM) | 12 (≈ 26 µM) | 12 (≈ 26 µM) |
| – | – | – | CC(C)Cc1ccc(C(C)C(=O)c2ccc(OCc3cn(-c4ccc(Cl)cc4)nn3)cc2O)cc1 (centres undefined) | 12 (≈ 24.5 µM) | 12 (≈ 24.5 µM) | 12 (≈ 24.5 µM) | 12 (≈ 24.5 µM) | 12 (≈ 24.5 µM) | 12 (≈ 24.5 µM) |
| – | – | 36 | CCCCCc1ccc(-c2cn(CCCOc3ccc(-c4cc(=O)c5ccccc5o4)cc3)nn2)cc1 | – | – | – | – | – | – |
| – | – | – | CC(C)Cc1ccc(C(C)C(=O)c2ccc(OCc3cn(C4CCCC4)nn3)cc2O)cc1 (centres undefined) | 12 (≈ 26.8 µM) | 12 (≈ 26.8 µM) | 12 (≈ 26.8 µM) | 12 (≈ 26.8 µM) | 12 (≈ 26.8 µM) | 12 (≈ 26.8 µM) |
| 7.4 | 0.037 | – | O=C(/C=C/C=C/c1ccccc1)c1cc(-n2cc(CN3C(=O)C(=O)c4ccccc43)nn2)ccc1O | – | – | – | – | – | – |
| – | – | – | CCCCCCn1cc(COc2ccc(C(=O)C(C)c3ccc(CC(C)C)cc3)c(O)c2)nn1 (centres undefined) | 12 (≈ 25.9 µM) | 12 (≈ 25.9 µM) | 12 (≈ 25.9 µM) | 12 (≈ 25.9 µM) | 12 (≈ 25.9 µM) | 12 (≈ 25.9 µM) |
| – | – | – | CC(C)Cc1ccc(C(C)C(=O)c2ccc(OCc3cn(-c4ccccc4Cl)nn3)cc2O)cc1 (centres undefined) | 12 (≈ 24.5 µM) | 12 (≈ 24.5 µM) | 12 (≈ 24.5 µM) | 12 (≈ 24.5 µM) | 12 (≈ 24.5 µM) | 12 (≈ 24.5 µM) |
| 7.4 | 0.037 | – | COc1ccc(/C=C/C(=O)c2cc(-n3cc(-c4ccccc4)nn3)ccc2O)cc1OC | – | – | – | – | – | – |
| 7.4 | 0.037 | – | O=C(/C=C/c1ccc(Cl)cc1)c1cc(-n2cc(-c3ccccc3)nn2)ccc1O | – | – | – | – | – | – |
| – | – | – | CCCCCCCCCCCCn1cc(COc2ccc(C(=O)C(C)c3ccc(CC(C)C)cc3)c(O)c2)nn1 (centres undefined) | 12 (≈ 21.9 µM) | 12 (≈ 21.9 µM) | 12 (≈ 21.9 µM) | 12 (≈ 21.9 µM) | 12 (≈ 21.9 µM) | 12 (≈ 21.9 µM) |
